Measurements as given in ChEMBL document CHEMBL5465560, “Selectivity Literature for EUbOPEN Chemogenomic Library” (2024).
Each block holds one molecule with its values, some of them ahead of it.

What was measured:
[1] = biological target: T1, Dual specificity mitogen-activated protein kinase kinase 3 (Homo sapiens) (UniProt P46734); experiment: Selectivity interaction (Ambit KINOMEscan and KiNATiv profiling in Jurkat cells) EUB0000090b MAP2K3; assay type: cell-based; details: at 1 µM
T1 sequence (whole entry): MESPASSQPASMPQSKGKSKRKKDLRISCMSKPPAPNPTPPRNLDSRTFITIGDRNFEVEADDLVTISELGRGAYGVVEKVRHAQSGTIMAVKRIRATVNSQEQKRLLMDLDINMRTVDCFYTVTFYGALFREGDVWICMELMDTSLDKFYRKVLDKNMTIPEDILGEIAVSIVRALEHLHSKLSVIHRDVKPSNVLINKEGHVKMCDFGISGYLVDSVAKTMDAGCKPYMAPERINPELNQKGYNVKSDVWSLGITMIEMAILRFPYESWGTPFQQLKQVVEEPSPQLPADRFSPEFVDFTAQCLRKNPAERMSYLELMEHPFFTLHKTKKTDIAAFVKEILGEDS

[2] = biological target: T2, Serine/threonine-protein kinase ICK (Homo sapiens) (UniProt Q9UPZ9); experiment: Selectivity interaction (LanthaScreen Eu Kinase Binding Assay) EUB0001632a ICK; details: at 10 µM
T2 sequence (whole entry): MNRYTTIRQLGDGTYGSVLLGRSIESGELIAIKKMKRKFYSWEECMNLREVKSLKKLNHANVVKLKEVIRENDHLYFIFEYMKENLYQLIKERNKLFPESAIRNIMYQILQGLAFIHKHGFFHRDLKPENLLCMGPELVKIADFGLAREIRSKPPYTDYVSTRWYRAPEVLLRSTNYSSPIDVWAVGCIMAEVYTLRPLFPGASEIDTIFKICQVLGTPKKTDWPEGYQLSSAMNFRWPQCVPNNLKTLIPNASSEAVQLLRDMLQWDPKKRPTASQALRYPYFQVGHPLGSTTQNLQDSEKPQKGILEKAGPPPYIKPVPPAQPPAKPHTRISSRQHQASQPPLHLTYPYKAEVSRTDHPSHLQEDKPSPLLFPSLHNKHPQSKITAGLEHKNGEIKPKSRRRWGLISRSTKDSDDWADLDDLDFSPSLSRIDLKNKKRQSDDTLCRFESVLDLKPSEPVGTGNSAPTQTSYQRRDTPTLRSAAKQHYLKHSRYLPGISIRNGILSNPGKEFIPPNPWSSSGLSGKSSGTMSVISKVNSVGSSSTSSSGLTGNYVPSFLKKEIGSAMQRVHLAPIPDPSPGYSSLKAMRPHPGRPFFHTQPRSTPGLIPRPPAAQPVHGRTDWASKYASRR

[3] = test system: Serine/threonine-protein kinase B-raf (Homo sapiens), P15056 [V600E]; details: at 10 µM
Serine/threonine-protein kinase B-raf (Homo sapiens), P15056 [V600E], sequence (P15056 whole entry V600E): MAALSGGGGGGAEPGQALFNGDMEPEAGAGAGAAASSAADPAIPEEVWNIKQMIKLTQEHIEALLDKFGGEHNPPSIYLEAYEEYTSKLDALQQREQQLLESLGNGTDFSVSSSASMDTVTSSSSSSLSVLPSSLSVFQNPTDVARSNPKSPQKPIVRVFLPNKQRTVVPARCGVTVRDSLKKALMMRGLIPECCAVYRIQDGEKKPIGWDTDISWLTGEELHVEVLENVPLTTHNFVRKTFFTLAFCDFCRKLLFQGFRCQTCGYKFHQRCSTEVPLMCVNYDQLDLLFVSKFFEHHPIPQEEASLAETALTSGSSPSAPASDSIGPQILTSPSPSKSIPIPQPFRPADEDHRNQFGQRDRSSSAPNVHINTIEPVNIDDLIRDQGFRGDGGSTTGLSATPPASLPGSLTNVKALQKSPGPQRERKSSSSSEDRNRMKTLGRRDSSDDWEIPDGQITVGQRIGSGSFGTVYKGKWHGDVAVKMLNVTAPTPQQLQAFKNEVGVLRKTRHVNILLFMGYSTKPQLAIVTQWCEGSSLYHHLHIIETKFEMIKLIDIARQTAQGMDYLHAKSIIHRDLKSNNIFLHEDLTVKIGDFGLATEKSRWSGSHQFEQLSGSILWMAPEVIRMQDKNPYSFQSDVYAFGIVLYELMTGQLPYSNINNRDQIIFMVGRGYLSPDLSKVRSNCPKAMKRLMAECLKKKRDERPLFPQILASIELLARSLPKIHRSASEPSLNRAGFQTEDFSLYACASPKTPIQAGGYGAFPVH

[4] = biological target: T3, Serine/threonine-protein kinase LATS1 (Homo sapiens) (UniProt O95835); details: at 10 µM
T3 sequence (whole entry): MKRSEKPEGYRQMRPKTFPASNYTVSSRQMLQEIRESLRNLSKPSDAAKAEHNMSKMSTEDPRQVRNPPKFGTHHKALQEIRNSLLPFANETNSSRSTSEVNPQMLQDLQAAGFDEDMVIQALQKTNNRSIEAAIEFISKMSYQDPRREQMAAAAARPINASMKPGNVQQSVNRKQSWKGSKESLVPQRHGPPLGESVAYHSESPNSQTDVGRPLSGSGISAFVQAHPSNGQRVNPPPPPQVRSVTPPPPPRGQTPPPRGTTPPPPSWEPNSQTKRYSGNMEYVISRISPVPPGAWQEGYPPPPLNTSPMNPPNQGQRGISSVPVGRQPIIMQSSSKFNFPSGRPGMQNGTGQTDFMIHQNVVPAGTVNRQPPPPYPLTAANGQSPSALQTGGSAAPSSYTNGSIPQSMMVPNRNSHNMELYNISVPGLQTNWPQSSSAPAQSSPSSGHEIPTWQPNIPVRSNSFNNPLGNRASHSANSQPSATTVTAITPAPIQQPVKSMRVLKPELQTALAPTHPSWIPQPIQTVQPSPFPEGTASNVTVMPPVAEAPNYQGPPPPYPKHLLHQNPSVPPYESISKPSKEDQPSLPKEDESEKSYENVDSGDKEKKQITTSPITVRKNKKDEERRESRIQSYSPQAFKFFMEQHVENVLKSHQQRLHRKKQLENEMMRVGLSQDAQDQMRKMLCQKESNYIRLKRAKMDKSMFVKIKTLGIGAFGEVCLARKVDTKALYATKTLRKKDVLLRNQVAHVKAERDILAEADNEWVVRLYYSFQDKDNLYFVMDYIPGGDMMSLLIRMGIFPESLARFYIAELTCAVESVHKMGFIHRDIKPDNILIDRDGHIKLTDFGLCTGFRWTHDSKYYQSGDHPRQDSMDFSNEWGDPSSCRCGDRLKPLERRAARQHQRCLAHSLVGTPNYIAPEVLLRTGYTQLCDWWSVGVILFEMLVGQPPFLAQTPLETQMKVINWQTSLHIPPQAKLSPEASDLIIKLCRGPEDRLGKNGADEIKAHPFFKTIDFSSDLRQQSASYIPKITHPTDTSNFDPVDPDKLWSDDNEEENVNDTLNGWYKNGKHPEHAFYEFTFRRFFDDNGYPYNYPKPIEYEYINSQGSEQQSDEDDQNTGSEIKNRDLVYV

[5] = biological target: Ribosomal protein S6 kinase alpha-5 (Homo sapiens) (UniProt O75582); experiment: Selectivity interaction (KinomeScan (DiscoverX)) EUB0000655a RPS6KA5; details: at 10 µM
Ribosomal protein S6 kinase alpha-5 (Homo sapiens), sequence (O75582 whole entry, looked up): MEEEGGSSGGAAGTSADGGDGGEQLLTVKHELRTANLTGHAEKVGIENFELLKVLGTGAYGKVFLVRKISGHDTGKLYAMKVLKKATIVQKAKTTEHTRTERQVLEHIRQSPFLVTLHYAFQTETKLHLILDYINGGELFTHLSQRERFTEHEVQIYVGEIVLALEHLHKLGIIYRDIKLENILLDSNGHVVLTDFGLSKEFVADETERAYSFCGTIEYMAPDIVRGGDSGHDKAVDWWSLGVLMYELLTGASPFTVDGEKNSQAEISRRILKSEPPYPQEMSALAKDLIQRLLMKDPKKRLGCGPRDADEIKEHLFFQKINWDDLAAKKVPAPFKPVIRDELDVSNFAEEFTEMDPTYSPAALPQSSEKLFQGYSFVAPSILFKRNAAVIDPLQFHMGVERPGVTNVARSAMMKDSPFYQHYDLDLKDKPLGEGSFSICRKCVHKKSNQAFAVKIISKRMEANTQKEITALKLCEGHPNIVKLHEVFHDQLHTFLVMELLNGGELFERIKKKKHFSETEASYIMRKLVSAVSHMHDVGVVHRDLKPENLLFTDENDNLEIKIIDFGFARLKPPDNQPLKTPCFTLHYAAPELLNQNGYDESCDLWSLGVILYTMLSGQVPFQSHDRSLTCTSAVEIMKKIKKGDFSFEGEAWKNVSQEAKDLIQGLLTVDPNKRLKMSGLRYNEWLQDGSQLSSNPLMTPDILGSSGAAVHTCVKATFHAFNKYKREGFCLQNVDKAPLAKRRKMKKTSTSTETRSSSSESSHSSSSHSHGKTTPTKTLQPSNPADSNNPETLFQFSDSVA

[6] = biological target: T4, Serine/threonine-protein kinase 17A (Homo sapiens) (UniProt Q9UEE5); experiment: Selectivity interaction (KinomeScan (DiscoverX)) EUB0000655a STK17A; details: at 10 µM
T4 sequence (whole entry): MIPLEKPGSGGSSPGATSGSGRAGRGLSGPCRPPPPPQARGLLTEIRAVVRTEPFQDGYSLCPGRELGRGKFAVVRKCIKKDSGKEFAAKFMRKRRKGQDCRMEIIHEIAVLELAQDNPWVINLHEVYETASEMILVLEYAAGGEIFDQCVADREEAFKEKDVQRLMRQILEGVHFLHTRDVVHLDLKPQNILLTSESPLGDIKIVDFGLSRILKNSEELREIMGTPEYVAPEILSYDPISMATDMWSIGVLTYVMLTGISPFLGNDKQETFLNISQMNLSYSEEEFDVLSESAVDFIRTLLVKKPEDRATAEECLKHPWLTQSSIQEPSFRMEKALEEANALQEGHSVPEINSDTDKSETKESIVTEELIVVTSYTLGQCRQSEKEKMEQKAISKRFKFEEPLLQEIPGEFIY

[7] = biological target: Serine/threonine-protein kinase SIK2 (Homo sapiens) (UniProt Q9H0K1); experiment: Selectivity interaction (KinomeScan (DiscoverX)) EUB0001619a SIK2; details: at 1 µM
Serine/threonine-protein kinase SIK2 (Homo sapiens), sequence (Q9H0K1 whole entry, looked up): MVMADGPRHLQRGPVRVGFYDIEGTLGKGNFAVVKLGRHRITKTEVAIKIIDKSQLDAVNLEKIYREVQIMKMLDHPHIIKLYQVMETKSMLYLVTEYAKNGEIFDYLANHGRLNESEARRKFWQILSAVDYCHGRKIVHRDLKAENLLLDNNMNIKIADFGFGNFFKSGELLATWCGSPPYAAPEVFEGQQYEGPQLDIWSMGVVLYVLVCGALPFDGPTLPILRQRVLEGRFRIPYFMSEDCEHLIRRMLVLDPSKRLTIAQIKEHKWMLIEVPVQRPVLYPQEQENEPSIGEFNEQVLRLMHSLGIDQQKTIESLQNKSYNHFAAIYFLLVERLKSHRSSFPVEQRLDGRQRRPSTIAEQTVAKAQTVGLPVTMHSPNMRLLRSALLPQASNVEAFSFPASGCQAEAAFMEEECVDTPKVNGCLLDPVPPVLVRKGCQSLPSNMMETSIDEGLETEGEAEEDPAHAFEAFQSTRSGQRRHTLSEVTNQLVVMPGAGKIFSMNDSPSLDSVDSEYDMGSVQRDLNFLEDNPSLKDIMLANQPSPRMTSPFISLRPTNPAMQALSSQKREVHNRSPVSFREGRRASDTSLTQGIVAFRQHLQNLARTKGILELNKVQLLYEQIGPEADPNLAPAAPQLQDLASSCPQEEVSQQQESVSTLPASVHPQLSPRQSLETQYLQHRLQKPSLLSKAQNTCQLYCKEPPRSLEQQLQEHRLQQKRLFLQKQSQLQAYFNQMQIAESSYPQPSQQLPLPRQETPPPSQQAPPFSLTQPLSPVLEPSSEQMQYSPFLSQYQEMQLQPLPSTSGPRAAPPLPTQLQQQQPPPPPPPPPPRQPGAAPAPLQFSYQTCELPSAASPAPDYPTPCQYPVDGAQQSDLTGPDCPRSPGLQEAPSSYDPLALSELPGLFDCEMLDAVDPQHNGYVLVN

[8] = biological target: Serine/threonine-protein kinase MRCK alpha (Homo sapiens) (UniProt Q5VT25); experiment: Selectivity interaction (KinomeScan (DiscoverX)) EUB0000666a CDC42BPA; details: at 10 µM
Serine/threonine-protein kinase MRCK alpha (Homo sapiens), sequence (Q5VT25 whole entry): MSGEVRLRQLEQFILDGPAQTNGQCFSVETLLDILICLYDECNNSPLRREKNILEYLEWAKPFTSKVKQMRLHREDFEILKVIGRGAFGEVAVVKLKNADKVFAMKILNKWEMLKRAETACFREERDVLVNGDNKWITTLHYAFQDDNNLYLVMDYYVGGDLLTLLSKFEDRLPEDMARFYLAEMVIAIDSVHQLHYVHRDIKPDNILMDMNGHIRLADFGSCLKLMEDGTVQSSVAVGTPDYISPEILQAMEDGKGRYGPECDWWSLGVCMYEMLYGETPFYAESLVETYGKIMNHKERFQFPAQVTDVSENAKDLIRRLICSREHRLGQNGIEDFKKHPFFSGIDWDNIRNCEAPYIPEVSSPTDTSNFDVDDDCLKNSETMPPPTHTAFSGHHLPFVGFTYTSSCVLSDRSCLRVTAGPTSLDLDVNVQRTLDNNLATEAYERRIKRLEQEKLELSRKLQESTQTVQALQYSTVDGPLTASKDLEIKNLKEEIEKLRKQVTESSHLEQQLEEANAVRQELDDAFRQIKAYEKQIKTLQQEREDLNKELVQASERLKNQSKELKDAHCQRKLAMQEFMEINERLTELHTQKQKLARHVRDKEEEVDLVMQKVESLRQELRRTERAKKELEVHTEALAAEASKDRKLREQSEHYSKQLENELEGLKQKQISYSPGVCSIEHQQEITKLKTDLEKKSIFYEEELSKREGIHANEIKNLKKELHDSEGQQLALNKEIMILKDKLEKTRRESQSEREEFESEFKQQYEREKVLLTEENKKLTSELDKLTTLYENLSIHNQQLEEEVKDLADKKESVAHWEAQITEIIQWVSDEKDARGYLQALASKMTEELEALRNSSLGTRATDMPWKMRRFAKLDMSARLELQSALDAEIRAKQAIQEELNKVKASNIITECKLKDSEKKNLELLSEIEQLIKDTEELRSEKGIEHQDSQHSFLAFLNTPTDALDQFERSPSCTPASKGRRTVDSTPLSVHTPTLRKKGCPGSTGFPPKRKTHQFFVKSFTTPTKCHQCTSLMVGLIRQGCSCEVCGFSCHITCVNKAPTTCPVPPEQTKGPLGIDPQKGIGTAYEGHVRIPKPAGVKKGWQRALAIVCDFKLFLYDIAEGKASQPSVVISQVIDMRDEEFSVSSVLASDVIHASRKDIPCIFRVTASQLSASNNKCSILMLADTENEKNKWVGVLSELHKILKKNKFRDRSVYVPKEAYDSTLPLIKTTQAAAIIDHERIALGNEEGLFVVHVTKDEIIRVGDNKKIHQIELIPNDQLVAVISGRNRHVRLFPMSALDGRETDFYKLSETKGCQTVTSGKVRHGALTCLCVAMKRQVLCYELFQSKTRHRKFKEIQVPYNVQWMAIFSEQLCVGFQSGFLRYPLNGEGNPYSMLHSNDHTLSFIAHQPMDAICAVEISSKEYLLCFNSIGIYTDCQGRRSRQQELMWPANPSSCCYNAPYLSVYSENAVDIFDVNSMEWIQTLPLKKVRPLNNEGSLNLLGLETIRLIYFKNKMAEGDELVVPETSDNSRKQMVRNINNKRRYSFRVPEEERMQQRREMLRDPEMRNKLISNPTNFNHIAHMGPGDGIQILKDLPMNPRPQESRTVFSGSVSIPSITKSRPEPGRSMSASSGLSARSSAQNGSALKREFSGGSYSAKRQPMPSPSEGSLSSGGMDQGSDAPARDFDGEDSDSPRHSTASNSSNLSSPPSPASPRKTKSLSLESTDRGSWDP

SMILES: CN(C)C/C=C/C(=O)Nc1ccc(C(=O)N2CCCC(Nc3ncc(Cl)c(-c4c[nH]c5ccccc45)n3)C2)cc1 (stereo not drawn)
- % of control [1]: 51%

- % of inhibition [2]: -3.44%
SMILES: Cn1cc(-n2cnc3c(NCc4nc5cc(Cl)c(Cl)cc5[nH]4)nc(N4CCOCC4)nc32)cn1

- % of control [3]: 100%
SMILES: CCN(CC)CCCCNc1ncc2cc(-c3cc(OC)cc(OC)c3)c(NC(=O)NC(C)(C)C)nc2n1

SMILES: COCC(=O)NC/C=C/c1ccc2ncnc(Nc3ccc(Oc4ccc(C)nc4)c(C)c3)c2c1 [CP-724714]
- % of control [4]: 100%

SMILES: CN(C)CCOc1ccc(-c2nc(-c3ccncc3)c(-c3ccc4c(c3)CC/C4=N\O)[nH]2)cc1
- % of control [5]: 100%
- % of control [6]: 69%

SMILES: N#Cc1cccc(-c2c[nH]c3ncnc(N4CCOCC4)c23)c1
- % of control [7]: 32%

SMILES: O=C(NOC[C@H](O)CO)c1ccc(F)c(F)c1Nc1ccc(I)cc1F
- % of control [8]: 100%
